Measurements reported in the NIST ThermoML archive (doi:10.1021/je100715x).
± gives the expanded uncertainty stated by the source.

Tests used:
[1] = xn = mol fraction of the nth substance listed; conditions: 101 kPa, Liquid; for viscosity: Capillary tube (Ostwald / Ubbelohde) method; for mass density: Vibrating tube method
[2] = refractive index (Na D-line) (dimensionless); xn = mol fraction of the nth substance listed; conditions: 101 kPa, Liquid, Standard Abbe refractometry

Question: With CCOC(=O)C(=O)OCC [diethyl ethanedioate] + O=C1CCCC1 as the compound, how does the viscosity ([1]; 303.15 K, x1 = 0.0679) read?
Answer: Its viscosity is 1.045 ± 0.014 mPa·s.

Question: What about the viscosity ([1]; 303.15 K, x1 = 0.1501) of the same compound?
Answer: Its viscosity is 1.095 ± 0.014 mPa·s.

Question: What about the viscosity ([1]; 303.15 K, x1 = 0.2518) of the same compound?
Answer: Its viscosity is 1.153 ± 0.015 mPa·s.

Question: And the viscosity ([1]; 303.15 K, x1 = 0.3903)?
Answer: The viscosity was 1.233 ± 0.016 mPa·s.

Question: What about the viscosity ([1]; 303.15 K, x1 = 0.4511) of the same compound?
Answer: Its viscosity is 1.265 ± 0.016 mPa·s.

Question: And the viscosity ([1]; 303.15 K, x1 = 0.5509)?
Answer: The viscosity was 1.326 ± 0.017 mPa·s.

Question: What about the viscosity ([1]; 303.15 K, x1 = 0.6587) of the same compound?
Answer: The viscosity was 1.394 ± 0.018 mPa·s.

Question: What about the viscosity ([1]; 303.15 K, x1 = 0.7587) of the same compound?
Answer: Its viscosity is 1.458 ± 0.019 mPa·s.

Question: And the viscosity ([1]; 303.15 K, x1 = 0.8755)?
Answer: Its viscosity is 1.537 ± 0.02 mPa·s.

Question: What about the viscosity ([1]; 303.15 K, x1 = 0.961) of the same compound?
Answer: The viscosity was 1.596 ± 0.021 mPa·s.

Question: What about the mass density ([1]; 303.15 K, x1 = 0.0679) of the same compound?
Answer: Its mass density is 950.9 ± 0.4 kg/m3.

Question: What about the mass density ([1]; 303.15 K, x1 = 0.1501) of the same compound?
Answer: Its mass density is 965 ± 0.4 kg/m3.

Question: What about the mass density ([1]; 303.15 K, x1 = 0.2518) of the same compound?
Answer: The mass density was 981 ± 0.3 kg/m3.

Question: And the mass density ([1]; 303.15 K, x1 = 0.3903)?
Answer: Its mass density is 1000.6 ± 0.4 kg/m3.

Question: And the mass density ([1]; 303.15 K, x1 = 0.4511)?
Answer: The mass density was 1008.5 ± 0.4 kg/m3.

Question: And the mass density ([1]; 303.15 K, x1 = 0.5509)?
Answer: Its mass density is 1020.7 ± 0.4 kg/m3.

Question: What about the mass density ([1]; 303.15 K, x1 = 0.6587) of the same compound?
Answer: Its mass density is 1032.9 ± 0.4 kg/m3.

Question: And the mass density ([1]; 303.15 K, x1 = 0.7587)?
Answer: The mass density was 1043.4 ± 0.4 kg/m3.

Question: And the mass density ([1]; 303.15 K, x1 = 0.8755)?
Answer: Its mass density is 1054.9 ± 0.4 kg/m3.

Question: And the mass density ([1]; 303.15 K, x1 = 0.961)?
Answer: The mass density was 1062.7 ± 0.4 kg/m3.

Question: What about the viscosity ([1]; 308.15 K, x1 = 0.0679) of the same compound?
Answer: The viscosity was 0.96 ± 0.012 mPa·s.

Question: What about the viscosity ([1]; 308.15 K, x1 = 0.1501) of the same compound?
Answer: The viscosity was 0.999 ± 0.013 mPa·s.

Question: And the viscosity ([1]; 308.15 K, x1 = 0.2518)?
Answer: Its viscosity is 1.048 ± 0.014 mPa·s.

Question: And the viscosity ([1]; 308.15 K, x1 = 0.3903)?
Answer: Its viscosity is 1.119 ± 0.015 mPa·s.

Question: What about the viscosity ([1]; 308.15 K, x1 = 0.4511) of the same compound?
Answer: The viscosity was 1.152 ± 0.015 mPa·s.

Question: And the viscosity ([1]; 308.15 K, x1 = 0.5509)?
Answer: Its viscosity is 1.207 ± 0.016 mPa·s.

Question: What about the viscosity ([1]; 308.15 K, x1 = 0.6587) of the same compound?
Answer: Its viscosity is 1.269 ± 0.016 mPa·s.

Question: What about the viscosity ([1]; 308.15 K, x1 = 0.7587) of the same compound?
Answer: Its viscosity is 1.329 ± 0.017 mPa·s.

Question: What about the viscosity ([1]; 308.15 K, x1 = 0.8755) of the same compound?
Answer: Its viscosity is 1.401 ± 0.018 mPa·s.

Question: And the viscosity ([1]; 308.15 K, x1 = 0.961)?
Answer: The viscosity was 1.454 ± 0.019 mPa·s.

Question: What about the mass density ([1]; 308.15 K, x1 = 0.0679) of the same compound?
Answer: The mass density was 946.1 ± 0.4 kg/m3.

Question: What about the mass density ([1]; 308.15 K, x1 = 0.1501) of the same compound?
Answer: Its mass density is 960.1 ± 0.4 kg/m3.

Question: What about the mass density ([1]; 308.15 K, x1 = 0.2518) of the same compound?
Answer: The mass density was 976 ± 0.4 kg/m3.

Question: What about the mass density ([1]; 308.15 K, x1 = 0.3903) of the same compound?
Answer: The mass density was 995.4 ± 0.4 kg/m3.

Question: And the mass density ([1]; 308.15 K, x1 = 0.4511)?
Answer: Its mass density is 1003.2 ± 0.4 kg/m3.

Question: What about the mass density ([1]; 308.15 K, x1 = 0.5509) of the same compound?
Answer: Its mass density is 1015.3 ± 0.4 kg/m3.

Question: And the mass density ([1]; 308.15 K, x1 = 0.6587)?
Answer: Its mass density is 1027.4 ± 0.4 kg/m3.

Question: And the mass density ([1]; 308.15 K, x1 = 0.7587)?
Answer: The mass density was 1037.9 ± 0.4 kg/m3.

Question: What about the mass density ([1]; 308.15 K, x1 = 0.8755) of the same compound?
Answer: The mass density was 1049.3 ± 0.4 kg/m3.

Question: And the mass density ([1]; 308.15 K, x1 = 0.961)?
Answer: Its mass density is 1057 ± 0.4 kg/m3.

Question: What about the viscosity ([1]; 313.15 K, x1 = 0.0679) of the same compound?
Answer: The viscosity was 0.891 ± 0.012 mPa·s.

Question: What about the viscosity ([1]; 313.15 K, x1 = 0.1501) of the same compound?
Answer: Its viscosity is 0.925 ± 0.012 mPa·s.

Question: And the viscosity ([1]; 313.15 K, x1 = 0.2518)?
Answer: Its viscosity is 0.968 ± 0.013 mPa·s.

Question: What about the viscosity ([1]; 313.15 K, x1 = 0.3903) of the same compound?
Answer: The viscosity was 1.031 ± 0.013 mPa·s.

Question: What about the viscosity ([1]; 313.15 K, x1 = 0.4511) of the same compound?
Answer: Its viscosity is 1.058 ± 0.014 mPa·s.

Question: What about the viscosity ([1]; 313.15 K, x1 = 0.5509) of the same compound?
Answer: Its viscosity is 1.107 ± 0.014 mPa·s.

Question: What about the viscosity ([1]; 313.15 K, x1 = 0.6587) of the same compound?
Answer: Its viscosity is 1.163 ± 0.015 mPa·s.

Question: What about the viscosity ([1]; 313.15 K, x1 = 0.7587) of the same compound?
Answer: The viscosity was 1.219 ± 0.016 mPa·s.

Question: And the viscosity ([1]; 313.15 K, x1 = 0.8755)?
Answer: Its viscosity is 1.288 ± 0.017 mPa·s.

Question: What about the viscosity ([1]; 313.15 K, x1 = 0.961) of the same compound?
Answer: The viscosity was 1.342 ± 0.017 mPa·s.

Question: And the mass density ([1]; 313.15 K, x1 = 0.0679)?
Answer: Its mass density is 941.1 ± 0.4 kg/m3.

Question: What about the mass density ([1]; 313.15 K, x1 = 0.1501) of the same compound?
Answer: Its mass density is 954.9 ± 0.4 kg/m3.

Question: And the mass density ([1]; 313.15 K, x1 = 0.2518)?
Answer: Its mass density is 970.6 ± 0.4 kg/m3.

Question: And the mass density ([1]; 313.15 K, x1 = 0.3903)?
Answer: The mass density was 989.9 ± 0.4 kg/m3.

Question: What about the mass density ([1]; 313.15 K, x1 = 0.4511) of the same compound?
Answer: Its mass density is 997.7 ± 0.4 kg/m3.

Question: And the mass density ([1]; 313.15 K, x1 = 0.5509)?
Answer: Its mass density is 1009.7 ± 0.4 kg/m3.

Question: And the mass density ([1]; 313.15 K, x1 = 0.6587)?
Answer: The mass density was 1021.7 ± 0.4 kg/m3.

Question: What about the mass density ([1]; 313.15 K, x1 = 0.7587) of the same compound?
Answer: Its mass density is 1032.1 ± 0.4 kg/m3.

Question: And the mass density ([1]; 313.15 K, x1 = 0.8755)?
Answer: Its mass density is 1043.3 ± 0.4 kg/m3.

Question: And the mass density ([1]; 313.15 K, x1 = 0.961)?
Answer: Its mass density is 1051 ± 0.4 kg/m3.

Question: And the refractive index ([2]; 303.15 K, x1 = 0.0679)?
Answer: The refractive index was 1.4299 ± 0.0004.

Question: What about the refractive index ([2]; 303.15 K, x1 = 0.1501) of the same compound?
Answer: The refractive index was 1.4264 ± 0.0004.

Question: What about the refractive index ([2]; 303.15 K, x1 = 0.2518) of the same compound?
Answer: The refractive index was 1.4226 ± 0.0004.

Question: And the refractive index ([2]; 303.15 K, x1 = 0.3903)?
Answer: Its refractive index is 1.4182 ± 0.0004.

Question: What about the refractive index ([2]; 303.15 K, x1 = 0.4511) of the same compound?
Answer: The refractive index was 1.4164 ± 0.0004.

Question: And the refractive index ([2]; 303.15 K, x1 = 0.5509)?
Answer: The refractive index was 1.4139 ± 0.0004.

Question: And the refractive index ([2]; 303.15 K, x1 = 0.6587)?
Answer: Its refractive index is 1.4115 ± 0.0004.

Question: And the refractive index ([2]; 303.15 K, x1 = 0.7587)?
Answer: The refractive index was 1.4098 ± 0.0004.

Question: And the refractive index ([2]; 303.15 K, x1 = 0.8755)?
Answer: Its refractive index is 1.408 ± 0.0004.

Question: And the refractive index ([2]; 303.15 K, x1 = 0.961)?
Answer: Its refractive index is 1.4068 ± 0.0004.

Question: And the refractive index ([2]; 308.15 K, x1 = 0.0679)?
Answer: The refractive index was 1.4278 ± 0.0004.

Question: And the refractive index ([2]; 308.15 K, x1 = 0.1501)?
Answer: Its refractive index is 1.4244 ± 0.0004.

Question: What about the refractive index ([2]; 308.15 K, x1 = 0.2518) of the same compound?
Answer: The refractive index was 1.4207 ± 0.0004.

Question: What about the refractive index ([2]; 308.15 K, x1 = 0.3903) of the same compound?
Answer: The refractive index was 1.4164 ± 0.0004.

Question: And the refractive index ([2]; 308.15 K, x1 = 0.4511)?
Answer: Its refractive index is 1.4147 ± 0.0004.

Question: And the refractive index ([2]; 308.15 K, x1 = 0.5509)?
Answer: Its refractive index is 1.4122 ± 0.0004.

Question: What about the refractive index ([2]; 308.15 K, x1 = 0.6587) of the same compound?
Answer: Its refractive index is 1.4098 ± 0.0004.

Question: What about the refractive index ([2]; 308.15 K, x1 = 0.7587) of the same compound?
Answer: The refractive index was 1.4079 ± 0.0004.

Question: And the refractive index ([2]; 308.15 K, x1 = 0.8755)?
Answer: The refractive index was 1.4059 ± 0.0004.

Question: What about the refractive index ([2]; 308.15 K, x1 = 0.961) of the same compound?
Answer: Its refractive index is 1.4045 ± 0.0004.

Question: What about the refractive index ([2]; 313.15 K, x1 = 0.0679) of the same compound?
Answer: Its refractive index is 1.4262 ± 0.0004.

Question: What about the refractive index ([2]; 313.15 K, x1 = 0.1501) of the same compound?
Answer: Its refractive index is 1.4231 ± 0.0004.

Question: And the refractive index ([2]; 313.15 K, x1 = 0.2518)?
Answer: Its refractive index is 1.4198 ± 0.0004.

Question: And the refractive index ([2]; 313.15 K, x1 = 0.3903)?
Answer: The refractive index was 1.4158 ± 0.0004.

Question: What about the refractive index ([2]; 313.15 K, x1 = 0.4511) of the same compound?
Answer: The refractive index was 1.4142 ± 0.0004.

Question: And the refractive index ([2]; 313.15 K, x1 = 0.5509)?
Answer: Its refractive index is 1.4116 ± 0.0004.

Question: What about the refractive index ([2]; 313.15 K, x1 = 0.6587) of the same compound?
Answer: The refractive index was 1.4089 ± 0.0004.

Question: And the refractive index ([2]; 313.15 K, x1 = 0.7587)?
Answer: Its refractive index is 1.4067 ± 0.0004.

Question: And the refractive index ([2]; 313.15 K, x1 = 0.8755)?
Answer: The refractive index was 1.4043 ± 0.0004.

Question: And the refractive index ([2]; 313.15 K, x1 = 0.961)?
Answer: Its refractive index is 1.4027 ± 0.0004.
